Assay results as given in ChEMBL document CHEMBL3217600, “The discovery and profile of PF-0868087, a CNS-sparing histamine H3 receptor antagonist for the treatment of allergic rhinitis” (Medchemcomm, 2012).

Columns and labels:
Nucleic Acid = test: Ratio of drug level in CSF to free drug level in plasma in iv dosed rat administered at high multiple of H3R Ki measured after 4 hrs infusion; type: ADME, organism-based; conditions: in vivo
[1] = Ratio of free drug level in brain to plasma in rat at 8 mg/kg/day, po for 8 days; type: ADME, organism-based; design: route oral; conditions: read-out: K(p,uu,brain)
[2] = Oral bioavailability in rat; type: ADME, organism-based; conditions: in vivo
[3] = Ratio of free drug level in brain to plasma in iv dosed rat measured after 6 hrs infusion; type: ADME, organism-based; conditions: read-out: K(p,uu,brain)
[4] = Solubility of the compound; type: physicochemical
Rattus norvegicus [5] = test: Ex vivo receptor occupancy of histamine H3 receptor in iv dosed rat brain administered at 20 times free H3R Ki in plasma measured after 6 hrs infusion; type: functional
[6] = Therapeutic index in EEG PKPD rat relative to CNS penetrant compound Z; type: organism-based; conditions: in vivo, read-out: TI
[7] = Distribution coefficient, log D of the compound at pH 7.4; type: physicochemical; conditions: octanol/water
MDR1 (P-gp) = test: Efflux ratio of permeability from basolateral to apical side over apical to basolateral side of MDR1 transfected dog MDCK cells; type: ADME, cell-based, Canis lupus familiaris
BCRP = test: Efflux ratio of permeability from basolateral to apical side over apical to basolateral side of BCRP transfected dog RRCK cells; type: ADME, cell-based, Canis lupus familiaris, MDCKII-LE
[8] = Apparent permeability from apical to basolateral side in dog RRCK cells; type: ADME, cell-based, Canis lupus familiaris, MDCKII-LE; conditions: MDCK
Salmonella typhimurium [9] = test: Genotoxicity in Salmonella typhimurium TA98 expressing lux gene assessed as mutagenicity by BioLum Ames test; type: toxicity, organism-based; conditions: salmonella enterica subsp. enterica serovar typhimurium
[10] = Tmax in rat at 2 mg/kg, po; type: ADME, organism-based; design: dose 2 mg/kg, route oral; conditions: in vivo
CHO [11] = test: Genotoxicity in CHO cells by micronucleus test in absence of metabolic activation; type: toxicity, cell-based, Cricetulus griseus; conditions: chinese hamster
[12] = biological target: Voltage-gated inwardly rectifying potassium channel KCNH2 (Homo sapiens, UniProt Q12809); test: Binding affinity to human ERG
HEK293 = test: Selectivity ratio of Ki for sigma receptor (unknown origin) to Ki for human recombinant histamine H3 receptor expressed in HEK-293 cells; type: cell-based
Histamine H3 receptor [13] = biological target: T1, Histamine H3 receptor (Homo sapiens, UniProt Q9Y5N1); test: Displacement of [3H]-PF-05255650 from human recombinant histamine H3 receptor expressed in HEK293 cell membrane; type: cell membranes
[14] = AUC in rat at 2 mg/kg, po; type: ADME, organism-based; design: dose 2 mg/kg, route oral; conditions: plasma
Histamine H3 receptor [15] = biological target: T1, Histamine H3 receptor; test: Inhibition of human recombinant histamine H3 receptor expressed in HEK293 cells by Glosensor functional assay; type: cell-based
Histamine H3 receptor [16] = biological target: T2, Histamine H3 receptor (Rattus norvegicus, UniProt Q9QYN8); test: Displacement of [3H]-N-alpha-methylhistamine from rat recombinant histamine H3 receptor expressed in HEK293 cell membrane; type: cell membranes
Histamine H3 receptor [17] = biological target: T1, Histamine H3 receptor; test: Displacement of [3H]-N-alpha-methylhistamine from human recombinant histamine H3 receptor expressed in HEK293 cell membrane; type: cell membranes
[18] = AUC in dog at 0.2 mg/kg, iv infusion; type: ADME, organism-based, Canis lupus familiaris; design: dose 0.2 mg/kg, route intravenous; conditions: plasma
[19] = Dissociation constant, pKa of the compound; type: physicochemical
CHO [20] = test: Genotoxicity in CHO cells by micronucleus test in presence of metabolic activation; type: toxicity, cell-based, Cricetulus griseus; conditions: chinese hamster
[21] = Drug absorption in rat at 2 mg/kg, po; type: ADME, organism-based; design: dose 2 mg/kg, route oral; conditions: in vivo, read-out: Drug absorption
[22] = Induction of phospholipidosis in transformed human liver epithelial cells; type: cell-based; conditions: epithelial cell
Salmonella typhimurium [23] = test: Genotoxicity in Salmonella typhimurium TA100 expressing lux gene assessed as mutagenicity by BioLum Ames test; type: toxicity, organism-based; conditions: salmonella enterica subsp. enterica serovar typhimurium
Rattus norvegicus [24] = test: Free Cmax in rat at 2 mg/kg, po; type: ADME, organism-based; design: dose 2 mg/kg, route oral; conditions: in vivo
Rattus norvegicus [25] = test: Free Cmax in rat at 1 mg/kg, iv administered as bolus dose; type: ADME, organism-based; design: dose 1 mg/kg, route intravenous; conditions: in vivo
Histamine H3 receptor [26] = biological target: T2, Histamine H3 receptor; test: Displacement of [3H]-N-alpha-methylhistamine from histamine H3 receptor in rat brain; type: tissue-based
[27] = Binding affinity to sigma receptor (unknown origin); design: species or system Homo sapiens
Histamine H3 receptor [28] = biological target: T1, Histamine H3 receptor; test: Inhibition of human recombinant histamine H3 receptor expressed in HEK293 cells assessed as inhibition of imetit-induced reduction in NKH477-stimulated cAMP accumulation by DiscoveRxTM assay; type: functional, cell-based
[29] = Total Cmax in dog at 0.2 mg/kg, po; type: ADME, organism-based, Canis lupus familiaris; design: dose 0.2 mg/kg, route oral; conditions: in vivo
[30] = Volume of distribution at steady state in dog at 0.2 mg/kg, iv infusion; type: ADME, organism-based, Canis lupus familiaris; design: dose 0.2 mg/kg, route intravenous; conditions: in vivo, read-out: Vdss
Histamine H1 receptor = Histamine H1 receptor (Homo sapiens, UniProt P35367); test: Binding affinity to human histamine H1 receptor
[31] = Effective half life in rat at 1 mg/kg, iv administered as bolus dose; type: ADME, organism-based; design: dose 1 mg/kg, route intravenous; conditions: in vivo, read-out: t1/2eff (converted)
[32] = Tmax in dog at 0.2 mg/kg, po; type: ADME, organism-based, Canis lupus familiaris; design: dose 0.2 mg/kg, route oral; conditions: in vivo
[33] = Ratio of free drug level in brain to plasma in dog at 1.5 mg/kg/day, po for 8 days; type: ADME, organism-based, Canis lupus familiaris; design: route oral; conditions: read-out: K(p,uu,brain)
[34] = Oral bioavailability in rat at 2 mg/kg; type: ADME, organism-based; conditions: in vivo
[35] = AUC in dog at 0.2 mg/kg, po; type: ADME, organism-based, Canis lupus familiaris; design: dose 0.2 mg/kg, route oral; conditions: plasma
[36] = Clearance in dog at 0.2 mg/kg, iv infusion; type: ADME, organism-based, Canis lupus familiaris; design: dose 0.2 mg/kg, route intravenous; conditions: in vivo
[37] = Total Cmax in rat at 2 mg/kg, po; type: ADME, organism-based; design: dose 2 mg/kg, route oral; conditions: in vivo
Histamine H4 receptor = Histamine H4 receptor (Homo sapiens, UniProt Q9H3N8); test: Binding affinity to human histamine H4 receptor
[38] = AUC in rat at 1 mg/kg, iv administered as bolus dose; type: ADME, organism-based; design: dose 1 mg/kg, route intravenous; conditions: plasma
[39] = Clearance in rat at 1 mg/kg, iv administered as bolus dose; type: ADME, organism-based; design: dose 1 mg/kg, route intravenous; conditions: in vivo
[40] = Total Cmax in dog at 0.2 mg/kg, iv infusion; type: ADME, organism-based, Canis lupus familiaris; design: dose 0.2 mg/kg, route intravenous; conditions: in vivo
[41] = biological target: Histamine H3 receptor (Cavia porcellus) (UniProt Q9JI35); test: Inhibition of histamine H3 receptor in electrically contracted guinea pig ileum assessed as reduction of R-alpha-methyl histamine mediated relaxation; type: tissue-based
[42] = Toxicity in non-regulatory rat assessed as tolerability administered for 7 days; type: organism-based; conditions: in vivo
Canis familiaris [43] = test: Free Cmax in dog at 0.2 mg/kg, po; type: ADME, organism-based, Canis lupus familiaris; design: dose 0.2 mg/kg, route oral; conditions: in vivo
Histamine H2 receptor = Histamine H2 receptor (Homo sapiens, UniProt P25021); test: Binding affinity to human histamine H2 receptor
[44] = Total Cmax in rat at 1 mg/kg, iv administered as bolus dose; type: ADME, organism-based; design: dose 1 mg/kg, route intravenous; conditions: in vivo
[45] = Oral bioavailability in dog at 0.2 mg/kg; type: ADME, organism-based, Canis lupus familiaris; conditions: in vivo
Canis familiaris [46] = test: Free Cmax in dog at 0.2 mg/kg, iv infusion; type: ADME, organism-based, Canis lupus familiaris; design: dose 0.2 mg/kg, route intravenous; conditions: in vivo
[47] = Effective half life in dog at 0.2 mg/kg, iv infusion; type: ADME, organism-based, Canis lupus familiaris; design: dose 0.2 mg/kg, route intravenous; conditions: in vivo, read-out: t1/2eff (converted)
[48] = Volume of distribution at steady state in rat at 1 mg/kg, iv administered as bolus dose; type: ADME, organism-based; design: dose 1 mg/kg, route intravenous; conditions: in vivo, read-out: Vdss
Rattus norvegicus [49] = test: Free drug level in non-regulatory rat administered for 7 days; type: ADME, organism-based; conditions: in vivo, 168 h

T1 sequence (Q9Y5N1 whole entry): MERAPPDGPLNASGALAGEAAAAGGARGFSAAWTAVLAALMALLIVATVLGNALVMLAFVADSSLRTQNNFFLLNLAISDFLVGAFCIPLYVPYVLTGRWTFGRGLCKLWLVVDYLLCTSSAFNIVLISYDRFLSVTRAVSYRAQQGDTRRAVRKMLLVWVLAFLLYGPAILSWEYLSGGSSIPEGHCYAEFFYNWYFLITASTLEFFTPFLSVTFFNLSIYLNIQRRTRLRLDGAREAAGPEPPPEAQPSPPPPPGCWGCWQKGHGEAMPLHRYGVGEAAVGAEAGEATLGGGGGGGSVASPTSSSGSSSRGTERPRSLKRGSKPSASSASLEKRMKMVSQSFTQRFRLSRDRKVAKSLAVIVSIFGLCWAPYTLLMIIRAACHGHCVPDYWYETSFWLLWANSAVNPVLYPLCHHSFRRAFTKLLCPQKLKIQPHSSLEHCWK
T2 sequence (Q9QYN8 whole entry): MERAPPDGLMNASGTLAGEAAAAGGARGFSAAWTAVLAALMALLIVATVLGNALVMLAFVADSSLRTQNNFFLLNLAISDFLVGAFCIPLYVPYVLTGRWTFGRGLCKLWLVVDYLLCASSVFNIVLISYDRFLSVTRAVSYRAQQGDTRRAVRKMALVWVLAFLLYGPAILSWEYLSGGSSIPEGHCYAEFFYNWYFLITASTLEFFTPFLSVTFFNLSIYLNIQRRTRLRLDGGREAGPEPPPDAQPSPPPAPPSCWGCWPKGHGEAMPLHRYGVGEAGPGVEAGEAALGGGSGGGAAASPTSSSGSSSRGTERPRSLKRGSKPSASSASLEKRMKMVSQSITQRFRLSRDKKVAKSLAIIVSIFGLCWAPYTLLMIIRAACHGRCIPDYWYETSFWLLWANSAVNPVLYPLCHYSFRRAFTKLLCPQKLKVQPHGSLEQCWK
Sequence of Histamine H4 receptor (Q9H3N8 whole entry): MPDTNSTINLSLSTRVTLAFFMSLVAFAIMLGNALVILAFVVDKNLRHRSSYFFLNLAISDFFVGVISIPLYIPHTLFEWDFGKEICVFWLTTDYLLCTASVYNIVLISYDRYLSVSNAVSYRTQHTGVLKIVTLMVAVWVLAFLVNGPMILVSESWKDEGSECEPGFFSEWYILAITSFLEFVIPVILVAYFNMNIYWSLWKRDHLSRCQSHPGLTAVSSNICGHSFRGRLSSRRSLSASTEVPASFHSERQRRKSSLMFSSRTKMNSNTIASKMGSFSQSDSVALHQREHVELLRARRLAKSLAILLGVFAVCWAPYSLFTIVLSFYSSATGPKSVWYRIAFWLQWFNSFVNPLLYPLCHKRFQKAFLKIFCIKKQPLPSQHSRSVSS
Sequence of Voltage-gated inwardly rectifying potassium channel KCNH2 (Q12809 whole entry): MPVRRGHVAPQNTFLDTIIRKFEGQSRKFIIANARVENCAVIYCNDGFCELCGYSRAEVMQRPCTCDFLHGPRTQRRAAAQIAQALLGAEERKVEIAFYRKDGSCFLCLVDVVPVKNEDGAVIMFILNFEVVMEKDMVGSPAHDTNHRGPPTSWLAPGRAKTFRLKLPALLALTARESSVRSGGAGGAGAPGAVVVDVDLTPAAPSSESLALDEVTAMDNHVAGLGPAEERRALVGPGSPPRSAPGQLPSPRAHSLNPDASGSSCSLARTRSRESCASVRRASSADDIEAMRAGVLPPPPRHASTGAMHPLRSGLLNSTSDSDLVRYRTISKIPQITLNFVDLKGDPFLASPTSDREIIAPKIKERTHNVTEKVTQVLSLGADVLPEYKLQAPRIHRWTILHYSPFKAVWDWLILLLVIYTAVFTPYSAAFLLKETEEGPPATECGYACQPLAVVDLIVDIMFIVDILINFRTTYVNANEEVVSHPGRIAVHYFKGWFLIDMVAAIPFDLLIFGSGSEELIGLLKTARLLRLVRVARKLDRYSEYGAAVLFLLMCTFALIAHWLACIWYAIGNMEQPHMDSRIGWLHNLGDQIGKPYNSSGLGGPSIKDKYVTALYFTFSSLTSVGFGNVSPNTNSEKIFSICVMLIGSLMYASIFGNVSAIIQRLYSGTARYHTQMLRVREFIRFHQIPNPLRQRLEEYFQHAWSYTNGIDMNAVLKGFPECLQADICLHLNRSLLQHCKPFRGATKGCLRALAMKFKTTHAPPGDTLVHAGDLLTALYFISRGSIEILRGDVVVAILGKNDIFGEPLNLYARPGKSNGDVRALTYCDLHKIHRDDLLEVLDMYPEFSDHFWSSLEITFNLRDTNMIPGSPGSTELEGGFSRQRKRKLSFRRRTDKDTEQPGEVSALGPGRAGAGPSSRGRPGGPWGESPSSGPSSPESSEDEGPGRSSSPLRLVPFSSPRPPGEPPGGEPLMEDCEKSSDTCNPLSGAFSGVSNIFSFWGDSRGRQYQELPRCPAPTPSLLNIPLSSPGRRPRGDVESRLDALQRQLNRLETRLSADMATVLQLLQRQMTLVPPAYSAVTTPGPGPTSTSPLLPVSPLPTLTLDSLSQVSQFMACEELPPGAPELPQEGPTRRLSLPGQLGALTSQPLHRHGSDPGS
Sequence of Histamine H2 receptor (P25021 whole entry): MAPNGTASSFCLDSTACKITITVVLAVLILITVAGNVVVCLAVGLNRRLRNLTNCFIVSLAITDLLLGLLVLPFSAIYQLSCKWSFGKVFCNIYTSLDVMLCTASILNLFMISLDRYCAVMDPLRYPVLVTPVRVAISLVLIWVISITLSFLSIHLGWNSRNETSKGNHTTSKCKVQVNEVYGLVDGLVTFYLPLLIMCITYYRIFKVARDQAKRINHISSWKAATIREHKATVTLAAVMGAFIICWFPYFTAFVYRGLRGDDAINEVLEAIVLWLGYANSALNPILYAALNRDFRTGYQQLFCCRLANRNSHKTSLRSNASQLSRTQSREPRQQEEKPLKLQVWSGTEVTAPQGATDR
Sequence of Histamine H3 receptor (Cavia porcellus) (Q9JI35 whole entry): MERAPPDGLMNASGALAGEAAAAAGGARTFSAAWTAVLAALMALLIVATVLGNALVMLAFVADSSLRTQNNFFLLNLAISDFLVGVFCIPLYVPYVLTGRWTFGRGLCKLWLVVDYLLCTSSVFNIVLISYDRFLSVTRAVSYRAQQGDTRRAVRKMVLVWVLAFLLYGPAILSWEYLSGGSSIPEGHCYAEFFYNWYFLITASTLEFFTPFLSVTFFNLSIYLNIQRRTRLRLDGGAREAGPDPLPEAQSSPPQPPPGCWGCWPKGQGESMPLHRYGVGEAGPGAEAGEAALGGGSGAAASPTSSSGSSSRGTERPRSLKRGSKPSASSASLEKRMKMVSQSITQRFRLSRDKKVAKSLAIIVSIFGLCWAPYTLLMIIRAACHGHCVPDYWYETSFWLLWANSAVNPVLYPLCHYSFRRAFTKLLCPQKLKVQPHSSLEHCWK
Sequence of Histamine H1 receptor (P35367 whole entry): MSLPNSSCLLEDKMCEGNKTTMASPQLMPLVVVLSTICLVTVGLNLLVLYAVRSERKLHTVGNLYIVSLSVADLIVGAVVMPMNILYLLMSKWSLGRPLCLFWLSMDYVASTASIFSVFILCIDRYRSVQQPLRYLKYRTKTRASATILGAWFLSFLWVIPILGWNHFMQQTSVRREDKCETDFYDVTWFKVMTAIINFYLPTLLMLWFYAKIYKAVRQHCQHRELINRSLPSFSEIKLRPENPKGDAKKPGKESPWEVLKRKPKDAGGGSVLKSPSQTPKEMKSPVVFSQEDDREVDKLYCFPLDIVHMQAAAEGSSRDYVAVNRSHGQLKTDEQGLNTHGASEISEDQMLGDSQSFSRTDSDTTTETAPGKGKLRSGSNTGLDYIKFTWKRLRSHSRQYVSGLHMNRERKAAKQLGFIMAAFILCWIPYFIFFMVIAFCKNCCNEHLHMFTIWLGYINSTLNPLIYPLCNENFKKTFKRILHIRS

## CC(C)N1CCC(Oc2ccc3c(n2)CCN(c2ccc(C(N)=O)cn2)C3)CC1
Nucleic Acid
  Ratio: 0.05
[1]
  Kp uu at 192 h: 0.07
[2]
  bioavailability: 54%
[3]
  Kp uu at 6 h: 0.1
[4]
  solubility: > 1000 µg/mL
Rattus norvegicus [5]
  Occ: 18%
[6]
  selectivity ratio: 40
[7]
  logD: 1.2
MDR1 (P-gp)
  efflux ratio: 4.8
BCRP
  efflux ratio: 3.7
[8]
  Papp A→B: 11 ×10⁻⁶ cm/s

## CC(C)N1CCC(Oc2ccc(C3(C(N)=O)CCOCC3)cc2)CC1
Salmonella typhimurium [9]
  Activity: Non-toxic
[10]
  Tmax: 0.75 h
Nucleic Acid
  Ratio: 0.06
[1]
  Kp uu at 192 h: 0.07
CHO [11]
  Activity: Non-toxic
[12]
  Ki: > 40000 nM
HEK293
  Ratio Ki: > 400
Histamine H3 receptor [13]
  Ki: 1.36 nM
[14]
  AUC: 649 ng·h/mL
Histamine H3 receptor [15]
  Kb: 0.42 nM
[2]
  bioavailability: 42%
Histamine H3 receptor [16]
  Ki: 90.6 nM
Histamine H3 receptor [17]
  Ki: 9.6 nM
[3]
  Kp uu at 6 h: 0.1
[18]
  AUC: 548 ng·h/mL
[19]
  pKa: 9.78
[4]
  solubility: > 1000 µg/mL
CHO [20]
  Activity: Non-toxic
[21]
  Fa: 57%
[22]
  NOAEL: 150 µM
Salmonella typhimurium [23]
  Activity: Non-toxic
Rattus norvegicus [24]
  fCmax: 158 nM
Rattus norvegicus [25]
  fCmax: 856 nM
Histamine H3 receptor [26]
  Ki: 145 nM
[27]
  Ki: 3900 nM
[6]
  selectivity ratio: 16
Histamine H3 receptor [28]
  Emax: 195%
  Ki: 0.832 nM
[29]
  Cmax: 142 ng/mL
[30]
  Vd: 2.3 L/kg
Histamine H1 receptor
  Ki: > 4000 nM
[31]
  half-life: 1.9 h
[32]
  Tmax: 0.9 h
[33]
  Kp uu at 192 h: 0.1
[34]
  bioavailability: 42%
[35]
  AUC: 727 ng·h/mL
[36]
  clearance: 6.1 mL/min/kg
[7]
  logD: 0
MDR1 (P-gp)
  efflux ratio: 3.3
[37]
  Cmax: 89 ng/mL
Histamine H4 receptor
  Ki: > 4000 nM
[38]
  AUC: 776 ng·h/mL
[39]
  clearance: 27 mL/min/kg
[40]
  Cmax: 129 ng/mL
[41]
  A2: 0.96 nM
[42]
  NOAEL at 168 h: 80 mg/kg/day
Canis familiaris [43]
  fCmax: 352 nM
Histamine H2 receptor
  Ki: > 4000 nM
[44]
  Cmax: 477 ng/mL
[45]
  bioavailability: 133%
BCRP
  efflux ratio: 5.6
Canis familiaris [46]
  fCmax: 320 nM
[8]
  Papp A→B: 2 ×10⁻⁶ cm/s
[47]
  half-life: 4.5 h
[48]
  Vd: 4.1 L/kg
Rattus norvegicus [49]
  Drug uptake(free): 14.051 µM
